In PubChem BioAssay (NCI):
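Protocol summary: plate cells (96-well), add compound at 5 concentrations, incubate 48 h, interpolate endpoints linearly. The concentration for full growth arrest is given as TGI.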

Assays:
Assay in all cases: NCI-60 cell line screen, 48 h
M14 melanoma = tested on: M14 melanoma
HT29 colon = tested on: HT29 colon
NCI-H226 lung = tested on: NCI-H226 lung
OVCAR-4 ovarian = tested on: OVCAR-4 ovarian
MDA-MB-435 = tested on: MDA-MB-435
HOP-62 NSCLC = tested on: HOP-62 NSCLC
NCI-H23 lung = tested on: NCI-H23 lung
HS 578T breast = tested on: HS 578T breast
SR leukemia = tested on: SR leukemia
MOLT-4 leukemia = tested on: MOLT-4 leukemia
CAKI-1 renal = tested on: CAKI-1 renal
UACC-257 melanoma = tested on: UACC-257 melanoma
NCI/ADR-RES ovarian = tested on: NCI/ADR-RES ovarian
CCRF-CEM leukemia = tested on: CCRF-CEM leukemia
A498 renal = tested on: A498 renal
HCC-2998 colon = tested on: HCC-2998 colon
MDA-MB-231 breast = tested on: MDA-MB-231 breast

Structure (SMILES)	TGI (M14 melanoma)	TGI (HT29 colon)	TGI (NCI-H226 lung)	TGI (OVCAR-4 ovarian)	TGI (MDA-MB-435)	TGI (HOP-62 NSCLC)	TGI (NCI-H23 lung)	TGI (HS 578T breast)	TGI (SR leukemia)	TGI (MOLT-4 leukemia)	TGI (CAKI-1 renal)	TGI (UACC-257 melanoma)	TGI (NCI/ADR-RES ovarian)	TGI (CCRF-CEM leukemia)	TGI (A498 renal)	TGI (HCC-2998 colon)	TGI (MDA-MB-231 breast)
CCOC(=O)c1c(SCC#N)n(-c2ccccc2)c(=S)n(-c2ccccc2)c1=O	> 100 µM	> 100 µM	> 100 µM	> 100 µM	> 100 µM	> 100 µM	> 100 µM	> 100 µM	> 100 µM	67.6 µM	> 100 µM	> 100 µM	> 100 µM	> 100 µM	–	–	–
CN1C(=O)c2cccc3c([N+](=O)[O-])ccc(c23)C1=O	23.1 µM	–	4.05 µM	25.9 µM	–	24.7 µM	24.7 µM	–	14 µM	28.2 µM	5.17 µM	21.6 µM	–	39.5 µM	5.64 µM	17.4 µM	–
COc1cc([C@@H]2c3cc4c(cc3[C@@H](NC(=O)c3ccc(C(C)=O)cc3)C3COC(=O)[C@@H]32)OCO4)cc(OC)c1O (some centres not stated)	31.1 µM	6.34 µM	1.93 µM	> 100 µM	–	1.35 µM	1.41 µM	–	–	29.9 µM	20.3 µM	32.2 µM	–	> 100 µM	5.87 µM	7.91 µM	–
CCOC(=O)C1C(=O)CC(C)(O)C(C(=O)OCC)C1c1ccc(O)c(OC)c1 (configuration not stated)	–	> 100 µM	> 100 µM	> 100 µM	> 100 µM	> 100 µM	> 100 µM	–	> 100 µM	> 100 µM	> 100 µM	> 100 µM	> 100 µM	> 100 µM	> 100 µM	> 100 µM	> 100 µM
O=c1[nH]ncc2[nH]c3c(c12)CCCc1ccccc1-3	> 100 µM	> 100 µM	> 100 µM	> 100 µM	82.9 µM	> 100 µM	> 100 µM	45.8 µM	–	> 100 µM	> 100 µM	> 100 µM	> 100 µM	> 100 µM	66.3 µM	61.4 µM	–
COC(=O)[C@@H]1C[C@H]2[C@H](c3ccccc3Br)[C@@H](OC(C)=O)[C@@H](OCc3ccccc3)ON2O1	> 100 µM	> 100 µM	–	> 100 µM	> 100 µM	> 100 µM	> 100 µM	–	> 100 µM	> 100 µM	> 100 µM	> 100 µM	> 100 µM	> 100 µM	–	> 100 µM	> 100 µM
CCN(CC)CCNC(=O)c1ccccc1Nc1c(Cl)cccc1Cl	34.5 µM	19 µM	38.5 µM	30.2 µM	–	24.2 µM	33.3 µM	–	34.2 µM	31.2 µM	–	29 µM	–	35.2 µM	–	21 µM	–
CCCN(CCC)C(=O)Cc1c2n(c3ccccc13)CCCc1ccccc1-2	26.4 µM	26 µM	28.5 µM	26.2 µM	–	30.3 µM	25.7 µM	–	24.8 µM	32.9 µM	28.4 µM	27 µM	–	37.2 µM	–	25.9 µM	–
CCCC/C=C1\CCC(CN2CCOCC2)C1=O (configuration not stated)	10.3 µM	12.1 µM	24.2 µM	36.1 µM	23 µM	30.2 µM	12.2 µM	–	5.23 µM	10.7 µM	3.74 µM	13.5 µM	–	3.35 µM	27.4 µM	22.1 µM	14.5 µM
C1CSCCSS[C@@H]2CCCCC2SC1 (some centres not stated)	> 100 µM	> 100 µM	–	> 100 µM	> 100 µM	> 100 µM	> 100 µM	–	> 100 µM	> 100 µM	–	> 100 µM	> 100 µM	> 100 µM	–	> 100 µM	> 100 µM
O=C1c2ccccc2N2OC3C4CCC(C4)C3C12c1ccccc1 (configuration not stated)	> 100 µM	> 100 µM	> 100 µM	> 100 µM	–	> 100 µM	> 100 µM	–	> 100 µM	> 100 µM	–	> 100 µM	–	> 100 µM	> 100 µM	> 100 µM	–
N=c1nc(N)nc(N)n1-c1ccc(S(N)(=O)=O)cc1	> 100 µM	> 100 µM	> 100 µM	> 100 µM	> 100 µM	> 100 µM	> 100 µM	–	> 100 µM	> 100 µM	> 100 µM	> 100 µM	> 100 µM	> 100 µM	> 100 µM	–	> 100 µM
CN(C)CCCNC(=O)c1cc(NC(=O)CCCn2c3ccccc3c3ccccc32)cn1C	> 100 µM	> 100 µM	> 100 µM	> 100 µM	> 100 µM	> 100 µM	> 100 µM	–	–	> 100 µM	> 100 µM	–	> 100 µM	> 100 µM	71.3 µM	–	> 100 µM
O=C(Cc1ccccc1)NN1C(=O)C(Cl)C1c1cc(Br)cc(Br)c1O (configuration not stated)	45.6 µM	63.4 µM	36.9 µM	80.4 µM	–	54 µM	33.2 µM	–	13.1 µM	13.2 µM	78.5 µM	39.4 µM	–	24.1 µM	–	31.1 µM	–
CSc1ccc2c(cc1=O)C(NC(=O)c1cc(O)c(OC(=O)O)c(O)c1)CCc1cc(O)c(O)c(O)c1-2 (configuration not stated)	30.5 µM	40.2 µM	62.3 µM	40.9 µM	–	64.5 µM	42.5 µM	–	–	35.6 µM	41.9 µM	> 90 µM	–	> 90 µM	> 90 µM	> 90 µM	–
COc1ccccc1OCc1nnc(SCC(=O)O)n1-c1ccccc1	> 100 µM	> 100 µM	> 100 µM	> 100 µM	–	> 100 µM	> 100 µM	–	> 100 µM	> 100 µM	–	> 100 µM	–	> 100 µM	> 100 µM	> 100 µM	–
CCOC(=O)NC(=O)c1cn(-c2ccc(CCOC(=O)CCCCCCCCC(=O)OCCc3ccc(-n4cc(C(=O)NC(=O)OCC)c(=O)[nH]c4=O)cc3)cc2)c(=O)[nH]c1=O	> 100 µM	> 100 µM	> 100 µM	> 100 µM	–	> 100 µM	> 100 µM	–	> 100 µM	> 100 µM	–	> 100 µM	–	> 100 µM	–	> 100 µM	–
N#CC1(C#N)C(c2ccccc2)NC23CCCCC2C1(C#N)C(=O)N3 (configuration not stated)	> 100 µM	> 100 µM	> 100 µM	> 100 µM	> 100 µM	> 100 µM	> 100 µM	–	> 100 µM	> 100 µM	> 100 µM	> 100 µM	> 100 µM	> 100 µM	> 100 µM	> 100 µM	> 100 µM
CCOP(=O)(C/C(=N/NC(C)(C)C)C(=O)Nc1nc2ccc(C)cc2s1)OCC	> 100 µM	> 100 µM	> 100 µM	> 100 µM	–	> 100 µM	> 100 µM	–	> 100 µM	> 100 µM	> 100 µM	> 100 µM	–	> 100 µM	> 100 µM	> 100 µM	–
N[C@H]1CCc2c1nc1c(c2-c2ccccc2)CC[C@@H]1N	31.1 µM	26 µM	> 100 µM	> 100 µM	30.2 µM	> 100 µM	61.6 µM	–	> 100 µM	27.6 µM	33.7 µM	–	> 100 µM	40.7 µM	–	49.2 µM	66 µM
CN(C)CC1CCC(CN(C)C)C1=NO (configuration not stated)	> 100 µM	> 100 µM	–	> 100 µM	–	> 100 µM	–	–	> 100 µM	> 100 µM	> 100 µM	> 100 µM	–	> 100 µM	–	> 100 µM	–
CCC(=O)NCC1(c2c[nH]c3ccccc23)SCCS1	> 100 µM	> 100 µM	> 100 µM	> 100 µM	–	> 100 µM	> 100 µM	–	> 100 µM	> 100 µM	> 100 µM	> 100 µM	–	> 100 µM	> 100 µM	> 100 µM	–
COC(=O)C(=O)C(C(=O)C(=O)Nc1ccc([N+](=O)[O-])cc1C#N)c1nc2ccc([N+](=O)[O-])cc2[nH]c1=O (configuration not stated)	> 100 µM	> 100 µM	> 100 µM	> 100 µM	–	> 100 µM	–	–	> 100 µM	> 100 µM	> 100 µM	> 100 µM	–	> 100 µM	> 100 µM	–	–
S=C(NNC1=NCCCCN1)Nc1ccccc1	> 100 µM	> 100 µM	> 100 µM	–	> 100 µM	> 100 µM	> 100 µM	–	> 100 µM	> 100 µM	> 100 µM	> 100 µM	> 100 µM	> 100 µM	> 100 µM	> 100 µM	> 100 µM
CC(=O)C1CC2(c3ccccc3)C(=O)c3ccccc3N2O1 (configuration not stated)	> 100 µM	> 100 µM	> 100 µM	> 100 µM	–	> 100 µM	> 100 µM	–	> 100 µM	> 100 µM	–	> 100 µM	–	> 100 µM	> 100 µM	> 100 µM	–
CC1(Br)C(=O)NC(=O)N([C@H]2C[C@H](O)[C@@H](CO)O2)C1N=[N+]=[N-] (some centres not stated)	> 100 µM	> 100 µM	> 100 µM	> 100 µM	–	> 100 µM	> 100 µM	–	> 100 µM	> 100 µM	> 100 µM	> 100 µM	–	> 100 µM	> 100 µM	> 100 µM	–
